Laboratory results: patent US7192918B2, “Tripeptide and tetrapeptide sulfones” (Telik, Inc., priority 2005, dated 2007)
Entries after “also recorded” stand apart in the source; their conditions may differ.

Legend:
[1] = target: T1, Recombinant human GST A1-1 (Homo sapiens, UniProt P08263); experiment: Inhibition of glutathione S-transferase isoenzyme GST A1-1 (CDNB/GSH, absorbance at 340 nm); type: biochemical; details: diacids (row number n = compound nA), pH 6.5, 2% DMSO
T1 construct: purchased EMD Biosciences, Inc., San Diego, Calif., U.S.A
T1 sequence (P08263 1-222): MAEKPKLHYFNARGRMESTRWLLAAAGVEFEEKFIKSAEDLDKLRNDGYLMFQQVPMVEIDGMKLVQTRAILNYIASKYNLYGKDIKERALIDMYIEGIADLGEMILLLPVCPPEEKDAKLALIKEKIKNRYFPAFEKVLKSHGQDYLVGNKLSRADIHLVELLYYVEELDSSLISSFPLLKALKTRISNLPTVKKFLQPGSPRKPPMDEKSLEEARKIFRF
Procedure: (§1) In vitro Example 1. Inhibition of glutathione S-transferase isoenzymes. […] For each assay, the test compound and GSH were added to the isoenzyme. Immediately after the addition of CDNB solution to the isoenzyme/compound/GSH solution, the absorbance at 340 nm was recorded continuously for 5 min on a SpectraMax plate reader (Molecular Devices, Inc., Sunnyvale, Calif., U.S.A.). The GST inhibitory activity of each compound was calculated from the slopes of the absorbance/time curves at the various concentrations of test compound. All assays were conducted in duplicate wells, with DMSO control, with the final DMSO concentration maintained at 2%.

[2] = target: T2, Recombinant human GST P1-1 (Homo sapiens, UniProt P09211); experiment: Inhibition of glutathione S-transferase isoenzyme GST P1-1 (CDNB/GSH, absorbance at 340 nm); type: biochemical; details: diacids (row number n = compound nA), pH 6.5, 2% DMSO
T2 construct: purchased EMD Biosciences, Inc., San Diego, Calif., U.S.A
Procedure: as §1

[3] = target: T3, Recombinant human GST M1-1 (Homo sapiens, UniProt P09488); experiment: Inhibition of glutathione S-transferase isoenzyme GST M1-1 (CDNB/GSH, absorbance at 340 nm); type: biochemical; details: diacids (row number n = compound nA), pH 6.5, 2% DMSO
T3 construct: purchased EMD Biosciences, Inc., San Diego, Calif., U.S.A
T3 sequence (P09488 2-218 limits assumed): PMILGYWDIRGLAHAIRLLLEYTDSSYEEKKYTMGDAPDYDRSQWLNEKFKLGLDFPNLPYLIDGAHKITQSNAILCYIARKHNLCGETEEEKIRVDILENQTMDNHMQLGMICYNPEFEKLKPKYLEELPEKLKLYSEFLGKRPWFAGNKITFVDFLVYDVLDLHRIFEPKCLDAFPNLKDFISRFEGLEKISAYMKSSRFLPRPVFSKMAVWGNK
Procedure: as §1

[4] = test system: HL-60 cells; details: background statement; cited from earlier work
[5] = test system: HL-60 cells; experiment: Enhancement of differentiation of HL-60 cells (CD11b surface expression, flow cytometry); type: cell-based, human; details: diethyl esters, 24 hours
Procedure: Some of the diethyl ester compounds of this invention were also tested for their ability to enhance the differentiation of HL-60 cells. This illustrates the beneficial effect of the compounds of this invention in stimulating differentiation of the HL-60 human leukemia cell line in vitro. […] The cells were harvested by centrifugation (1250 rpm for 5 min at 20° C.) and washed with 2 mL ice-cold phosphate-buffered saline (PBS) containing 2% FBS, then stained with 10 μL phycoerythrin-conjugated anti-CD11b antibody or 10 μL phycoerythrin-conjugated isotype control antibody. After standing for 30 min on ice, the cells were re-suspended in 2 mL ice-cold PBS containing 2% FBS. The cells were harvested by centrifugation (1250 rpm for 5 min at 20° C.) and resuspended in 0.4 mL PBS containing 2% FBS. The specific cell surface expression of CD11b, a marker for granulocytes and monocytes, was detected by flow cytometry using a FACSCalibur analyzer (BD Biosciences). All assays were conducted in triplicate, with DMSO control. The extent of differentiation was expressed as a multiple of the signal from the DMSO control.

[6] = Phase II, interim results; cited from earlier work
[7] = both in vitro and in vivo; cited from earlier work

T2 sequence (P09211 2-210 limits assumed): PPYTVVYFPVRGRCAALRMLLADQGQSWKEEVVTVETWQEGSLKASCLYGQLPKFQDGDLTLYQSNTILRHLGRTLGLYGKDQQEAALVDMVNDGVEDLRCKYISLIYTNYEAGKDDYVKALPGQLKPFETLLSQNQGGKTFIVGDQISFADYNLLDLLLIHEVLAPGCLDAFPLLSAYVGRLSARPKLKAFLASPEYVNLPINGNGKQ

Row | SMILES | IC50 [1] [µM] | IC50 [2] [µM] | IC50 [3] [µM] | Differentiation of HL-60 promyelocytic leukemia cells in vitro [4] | Differentiation of HL-60 cells (CD11b expression as multiple of DMSO control) [5] | Hematologic response in humans [6] | Tolerability in MDS patients [6] | Potentiation of the activity of cytotoxic agents [7]
1 | N[C@@H](CCC(=O)N[C@@H](CS(=O)(=O)Cc1ccc([N+](=O)[O-])o1)C(=O)N[C@@H](C(=O)O)c1ccccc1)C(=O)O [Compound 14A, L-γ-glutamyl-3-[(5-nitrofuran-2-ylmethyl)sulfonyl]-L-alanyl-D-phenylglycine] | 52 | 3.2 | 100 | – | – | – | – | –
2 | CCOC(=O)[C@@H](N)CCC(=O)N[C@@H](CSCc1ccccc1)C(=O)N[C@@H](C(=O)OCC)c1ccccc1 [TLK199] | – | – | – | induce the differentiation of HL-60 promyelocytic leukemia cells | enhances differentiation | myelostimulant activity in humans; also recorded: multilineage hematologic improvement | well tolerated | chemopotentiation activity in an animal model
